The values that follow come from the NIST ThermoML archive (doi:10.1021/je1012857).

± gives the expanded uncertainty stated by the source.

The conditions of the series: 298.15 K, 101.33 kPa, Liquid; for viscosity: Capillary tube (Ostwald / Ubbelohde) method; for speed of sound: Sing-around technique in a fixed-path interferometer.

For `CC(C)CO` [2-methyl-1-propanol], the mass density is 798.104 ± 1 kg/m3, the viscosity is 3.307 ± 0.025 mPa·s and the speed of sound is reported as 1188.8 ± 1.3 m/s.

On to `CCCCO` [butan-1-ol], for which the mass density worked out at 805.953 ± 0.47 kg/m3, the viscosity was 2.565 ± 0.016 mPa·s and the speed of sound was determined as 1241.1 ± 1 m/s.

For the compound `NCCN` [ethane-1,2-diamine], the mass density worked out at 892.389 ± 0.75 kg/m3, the viscosity is listed as 1.405 ± 0.012 mPa·s and the speed of sound was 1671.6 ± 1.4 m/s.

Consider `CC(C)O` [propan-2-ol], for which the mass density amounted to 781.051 ± 0.51 kg/m3, the viscosity is listed as 2.063 ± 0.013 mPa·s and the speed of sound stood at 1140.4 ± 0.9 m/s.
